# From patent publication US20250034194A1, “INHIBITORS OF ABNORMAL PHOSPHORYLATION AND TAU PROTEIN AGGREGATION” (UNIVERSITE DE PICARDIE JULES VERNE, priority 2021, published 2025)
# Experiments:
# SH-SY5Y = test: Cytotoxicity study, MTT test; format: cell-based; settings: differentiated SH-SY5Y; 0.1 to 100 μg/mL; 24 hours
# Procedure: In order to evaluate the level of toxicity of these molecules according to their concentration in the cellular environment, an MTT test (3-(4,5-dimethylthiazol-2-yl)-2,5-diphenyl tetrazolium bromide) is carried out (FIGS. 11 and 12) upstream of the phosphorylation tests in cellulo.
# SH-SY5Y (ATCC-CRL-2266) are developed in Dulbecco's Modified Eagle Complete Medium (DMEM-GlutaMAX™, Life Technologies) with 10% foetal bovine serum (FBS) and 1% penicillin/streptomycin in an incubator at 37° C. with 5% CO2.
# For this, the SH-SY5Y cells are cultured in a 6-well plate at a cell density of 200,000 cells/well and are differentiated using retinoic acid (10 μM, Sigma Aldrich) for 5 days. On day 6, the cells are brought into contact with LG2A molecules at different concentrations (0.1, 1, 10 or 100 μg/mL), in a final volume of 2 mL. After 24 hours, MTT (5 μg/mL; Sigma-Aldrich) is added to the cell medium for 2 hours at 37° C. Then the medium is removed and 200 μL of pure dimethylsulfoxide (DMSO, Sigma-Aldrich) are added to each well. The entire contents of each well are transferred to a 96-well plate and the absorbance is measured at 562 nm using the Infinite M1000 spectrofluorometer (Tecan).
# [1] = molecular target: T1, tau protein (4R2N, 441 amino acids) (Homo sapiens, UniProt P10636); test: In vitro abnormal tau phosphorylation by GSK3β, competition with heparin (western blot); format: biochemical
# T1 construct: purchased Millipore (tau); Promega (GSK3β)
# Source text: Phosphorylation of tau protein is the most common post-translational modification to regulate tau activity and functions. The longest tau isoform (4R2N, 441 amino acids) containing 85 potential phosphorylation sites was used. In vitro phosphorylation of the tau protein is done by induction, on the one hand, (FIG. 5) and, on the other hand, according to a competition process between the LG2A molecules and heparin, conventionally used to induce abnormal tau phosphorylation in vitro (FIGS. 3, 4, 6, 7, 8, 9 and 10).
# For abnormal tau phosphorylation tests, GSK3p, a kinase centrally involved in this process in the brains of subjects with Alzheimer's disease (AD), was used. Analysis of tau phosphorylation by GSK3b at sites characteristic of AD is possible by the western blot technique using specific antibodies that recognize abnormally phosphorylated sites in the brain or cerebrospinal fluid of AD subjects, such as the AT270 antibody which recognizes threonine 181 (Thr181), the PHF1 antibody which recognizes serines 396 and 404 (Ser396/Ser404), and the AT8 antibody, which recognizes the Ser199/Ser202/Thr205 site.
# By competition: The tau protein (40 μg/mL) is phosphorylated by the GSK3β enzyme at 4 ng/mL (Promega) in the presence of ATP (Sigma-Aldrich) at 48 μM and protease inhibitors (Sigma-Aldrich, 1/100), in the buffer mentioned above. The ability of the LG2A molecules (60 μg/mL) to compete with heparin (12 μg/mL; Sigma-Aldrich) is evaluated. Thus if the signal in the presence of the molecules is less than that obtained with heparin alone, the molecules are then defined as “protectors” from abnormal tau phosphorylation.
# In both systems (induction or competition), the tau protein is incubated at 37° C. with stirring in the presence of the different elements presented above. The reaction kinetics are monitored by taking 8 μL of the samples at 1.5 h, 3 h and 6 h of incubation. Loading buffer (Euromedex) and β-mercaptoethanol (Sigma-Aldrich) are added to each sample. The samples are then stored at −20° C. until analysis by western blot.
# After denaturation of the samples by heating at 95° C. for 5 minutes, the samples are deposited simultaneously with the molecular weight marker (Precision Plus Protein™ Dual Color Standards; BIO-RAD) on a 10% acrylamide gel placed in an electrophoresis tank containing migration buffer (0.25 M Tris; 1.6 M Glycine; […]; pH 8.6).
# The controls used for this phosphorylation experiment followed by western blot are: • the “native tau” protein, that is to say the non-phosphorylated tau protein. • the tau protein phosphorylated by GSK3b alone in the absence of heparin. • the tau protein phosphorylated in the presence of heparin, denoted “tau+heparin”. • the “external standard” corresponding to the tau protein phosphorylated in the presence of heparin for 3 h. This standard is carried out in an experiment independently of the phosphorylation experiments in the presence of LG2A compounds. It ensures that the western blot is carried out correctly.
# Then the membrane is incubated overnight with stirring at +4° C. in a solution of PBS, 0.1% Tween and 1% milk containing the primary antibody specific for tau phosphorylation sites (AT270, ThermoScientific or S199-202, Millipore).
# After incubation of the PVDF membrane in the chosen primary antibody, a succession of 3 washes of 5 minutes of the membrane is carried out in PBS and 0.1% Tween with stirring and the membrane is incubated for 1 h with stirring at room temperature in a solution of 1×PBS, 0.1% Tween and 1% milk containing the diluted secondary antibody (Jackson Immuno-Research).
# [2] = molecular target: T2, tau protein (4R2N isoform, 441 amino acids) (Homo sapiens, UniProt P10636); test: Induction of tau protein aggregation, Thioflavin T incorporation; format: biochemical; settings: tau 0.71 mg/mL, compound 0.175 mg/mL (mass ratio 4/1); up to 72 h
# T2 construct: purchased Tebu-bio (custom synthesized)
# Procedure: The ability of the 16-carbon disulphated maltobionamide compound “Mal16diS” to induce tau protein aggregation, another step in the occurrence of neurofibrillary tangles, was evaluated. Thus, the ability of this molecule to induce or inhibit the aggregation of tau in vitro (FIG. 10) was evaluated in a test described in the article by Sui et al, 2015 in which tau aggregation is monitored by the incorporation of Thioflavin T (ThT). […]
# 100 μL of ThT (Sigma-Aldrich) at 50 μM is immediately added to each well, then the plate is incubated at 37° C. with stirring. Monitoring the formation of tau protein aggregates is possible by monitoring the incorporation of thioflavin leading to its fluorescence emission and is carried out by reading at 0, 24, 40, 48 and 71 h at Exc wavelength 450 nm/Em wavelength 510 nm, by means of an Infinite M1000 spectrofluorometer (Tecan).
# T1 sequence (P10636 1-441 isoform P10636-8): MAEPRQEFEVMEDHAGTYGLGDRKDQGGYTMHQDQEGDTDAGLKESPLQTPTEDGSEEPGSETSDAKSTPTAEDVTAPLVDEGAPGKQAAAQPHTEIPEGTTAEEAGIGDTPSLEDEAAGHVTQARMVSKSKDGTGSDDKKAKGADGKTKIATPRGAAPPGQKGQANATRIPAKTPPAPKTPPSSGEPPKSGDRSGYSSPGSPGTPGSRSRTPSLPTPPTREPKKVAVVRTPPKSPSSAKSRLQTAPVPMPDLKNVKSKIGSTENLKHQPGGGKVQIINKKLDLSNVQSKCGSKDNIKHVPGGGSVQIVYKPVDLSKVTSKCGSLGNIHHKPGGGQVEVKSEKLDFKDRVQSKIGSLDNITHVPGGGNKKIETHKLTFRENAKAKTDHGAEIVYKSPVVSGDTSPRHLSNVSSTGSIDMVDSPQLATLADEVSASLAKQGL
# T2 sequence (P10636 1-441 isoform P10636-8): as above
compound,measurement,setting,value
"CCCCCCCCCCCCCCCCNC(=O)[C@H](O)[C@@H](O)[C@H](O[C@H]1OC(COS(=O)(=O)[O-])[C@@H](O)C(O)[C@@H]1O)[C@H](O)COS(=O)(=O)[O-].[Na+].[Na+] (stereo partly drawn) [Mal16diS, N-Hexadecyl-6,6′-Di-O-Sulfo-D-Maltobioamide Disodium]",cytotoxicity (MTT),SH-SY5Y,not cytotoxic
same,abnormal phosphorylation of tau (p-tau) revealed by AT270 and Ser199/202 antibodies,"[1]; in presence of heparin, after 3 h of reaction",inhibited
same,ability to compete with heparin for abnormal tau phosphorylation by GSK3β,"[1]; molecule 60 μg/mL vs heparin 12 μg/mL, 1.5 to 6 h of reaction, AT270, Ser199/202",total competition with heparin
same,induction of tau protein aggregation (Thioflavin-T),[2],induces the aggregation of tau protein more weakly compared to heparin
